Where only a bound is given, the exact number is not on record here.

The GI50 is the concentration giving 50% growth inhibition. A high value points to less potent growth inhibition.

The subject of this assay is NCIH929.1 cells. Briefly: Cell viability assay (CellTiter-Glo 2.0, ATP quantification). Type of assay: cell-based. As to conditions: NCIH929.1 cell viability, CellTiter-Glo 2.0, 96 hr incubation, top concentration 1 μM. In outline:
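Read-out is CellTiter-Glo 2.0 luminescence (ATP), after 96 h compound exposure at 37 °C, with a day-0 plate giving the CT0 baseline. Duplicate 10-point half-log titration from 1 μM applied to 750 cells/well in RPMI, 10% FBS, 0.05 mM 2-mercaptoethanol.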
(In general: In ATP-based viability assays light output follows the ATP content of the culture.)
`O=C1CCC(N2C(=O)c3cccc(NCc4cnn(C5CCN(C(=O)[C@H]6CCCO6)CC5)c4)c3C2=O)C(=O)N1` (stereo partly drawn) [Compound 38, 2-(2,6-dioxopiperidin-3-yl)-4-(((1-(1-((R)-tetrahydrofuran-2-carbonyl)piperidin-4-yl)-1H-pyrazol-4-yl)methyl)amino)isoindoline-1,3-dione] returned a GI50 of less than 100 nM.

The compound `O=C1CCC(N2C(=O)c3cccc(NCc4cnn(C5CCN(C(=O)OCC(F)(F)F)CC5)c4)c3C2=O)C(=O)N1` (stereo not drawn) [Compound 165, 4-(4-{[2-(2,6-Dioxo-piperidin-3-yl)-1,3-dioxo-2,3-dihydro-1H-isoindol-4-ylamino]-methyl}-pyrazol-1-yl)-piperidine-1-carboxylic acid 2,2,2-trifluoro-ethyl ester] yielded a GI50 of less than 100 nM. The figure for `CC(=O)NCC1CCC(C(=O)N2CCC(n3cc(CNc4cccc5c4C(=O)N(C4CCC(=O)NC4=O)C5=O)cn3)CC2)CC1` (stereo not drawn) [Compound 99, N-((4-(4-(4-(((2-(2,6-dioxopiperidin-3-yl)-1,3-dioxoisoindolin-4-yl)amino)methyl)-1H-pyrazol-1-yl)piperidine-1-carbonyl)cyclohexyl)methyl)acetamide] is less than 100 nM; for `CC1(C(=O)N2CCC(C)(n3cc(CNc4cccc5c4C(=O)N(C4CCC(=O)NC4=O)C5=O)cn3)CC2)CCC1` (stereo not drawn) [Compound 173, 2-(2,6-Dioxopiperidin-3-yl)-4-(((1-(4-methyl-1-(1-methylcyclobutane-1-carbonyl)piperidin-4-yl)-1H-pyrazol-4-yl)methyl)amino)isoindoline-1,3-dione] it is less than 100 nM.

In turn, `O=C1CCC(N2C(=O)c3cccc(NCc4cnn(C5CCN(C(=O)C67CCC(C6)C7)CC5)c4)c3C2=O)C(=O)N1` (stereo not drawn) [Compound 97, 4-(((1-(1-(bicyclo[2.1.1]hexane-1-carbonyl)piperidin-4-yl)-1H-pyrazol-4-yl)methyl)amino)-2-(2,6-dioxopiperidin-3-yl)isoindoline-1,3-dione] registered a GI50 of less than 100 nM. `CN1CCC(C)(C(=O)N2CCC(n3cc(CNc4cccc5c4C(=O)N(C4CCC(=O)NC4=O)C5=O)cn3)CC2)CC1` (stereo not drawn) [Compound 55, 4-(((1-(1-(1,4-dimethylpiperidine-4-carbonyl)piperidin-4-yl)-1H-pyrazol-4-yl)methyl)amino)-2-(2,6-dioxopiperidin-3-yl)isoindoline-1,3-dione]: the GI50 was less than 100 nM. The figure for `O=C1CCC(N2C(=O)c3cccc(NCc4cnn(C5CCN(C6CC7(CCC7)C6)CC5)c4)c3C2=O)C(=O)N1` (stereo not drawn) [Compound 135, 2-(2,6-dioxopiperidin-3-yl)-4-(((1-(1-(spiro[3.3]heptan-2-yl)piperidin-4-yl)-1H-pyrazol-4-yl)methyl)amino)isoindoline-1,3-dione] is less than 100 nM; for `COc1ccc(-c2cc(C(=O)N3CCC(n4cc(CNc5cccc6c5C(=O)N(C5CCC(=O)NC5=O)C6=O)cn4)CC3)ccn2)cc1` (stereo not drawn) [Compound 103, 2-(2,6-dioxopiperidin-3-yl)-4-(((1-(1-(2-(4-methoxyphenyl)isonicotinoyl)piperidin-4-yl)-1H-pyrazol-4-yl)methyl)amino)isoindoline-1,3-dione] it is less than 100 nM. Next, `CC(C)(O)C(=O)N1CCC(n2cc(CNc3cccc4c3C(=O)N(C3CCC(=O)NC3=O)C4=O)cn2)CC1` (stereo not drawn) [Compound 52, 2-(2,6-dioxopiperidin-3-yl)-4-(((1-(1-(2-hydroxy-2-methylpropanoyl)piperidin-4-yl)-1H-pyrazol-4-yl)methyl)amino)isoindoline-1,3-dione]: less than 100 nM; `Cn1nc(C2CC2)cc1CC(=O)N1CCC(n2cc(CNc3cccc4c3C(=O)N(C3CCC(=O)NC3=O)C4=O)cn2)CC1` (stereo not drawn) [Compound 125, 4-(((1-(1-(2-(3-cyclopropyl-1-methyl-1H-pyrazol-5-yl)acetyl)piperidin-4-yl)-1H-pyrazol-4-yl)methyl)amino)-2-(2,6-dioxopiperidin-3-yl)isoindoline-1,3-dione]: less than 100 nM; `O=C1CCC(N2C(=O)c3cccc(NCc4cnn(C5CCN(C(=O)C6(Cc7ccccc7)CC6)CC5)c4)c3C2=O)C(=O)N1` (stereo not drawn) [Compound 71, 4-(((1-(1-(1-benzylcyclopropane-1-carbonyl)piperidin-4-yl)-1H-pyrazol-4-yl)methyl)amino)-2-(2,6-dioxopiperidin-3-yl)isoindoline-1,3-dione]: less than 100 nM. The figure for `CC1(C(=O)N2CCC(n3cc(CNc4cccc5c4C(=O)N(C4CCC(=O)NC4=O)C5=O)c(N)n3)CC2)CCC1` (stereo not drawn) [Compound 179, 4-(((3-Amino-1-(1-(1-methylcyclobutane-1-carbonyl)piperidin-4-yl)-1H-pyrazol-4-yl)methyl)amino)-2-(2,6-dioxopiperidin-3-yl)isoindoline-1,3-dione] is less than 100 nM; for `CC1(C(=O)N2CCC(n3cc(CNc4cccc5c4C(=O)N(C4CCC(=O)NC4=O)C5=O)cn3)CC2)CCCC1` (stereo not drawn) [Compound 62, 2-(2,6-dioxopiperidin-3-yl)-4-(((1-(1-(1-methylcyclopentane-1-carbonyl)piperidin-4-yl)-1H-pyrazol-4-yl)methyl)amino)isoindoline-1,3-dione] it is less than 1 nM. On to `O=C1CCC(N2C(=O)c3cccc(NCc4cnn(C5CCN(C(=O)CCC6CC6)CC5)c4)c3C2=O)C(=O)N1` (stereo not drawn) [Compound 21, 4-(((1-(1-(3-cyclopropylpropanoyl)piperidin-4-yl)-1H-pyrazol-4-yl)methyl)amino)-2-(2,6-dioxopiperidin-3-yl)isoindoline-1,3-dione], for which the GI50 is less than 100 nM. Next, `O=C1CCC(N2C(=O)c3cccc(NCc4cnn(C5CCN(C(=O)C(F)F)CC5)c4)c3C2=O)C(=O)N1` (stereo not drawn) [Compound 10, 4-(((1-(1-(2,2-difluoroacetyl)piperidin-4-yl)-1H-pyrazol-4-yl)methyl)amino)-2-(2,6-dioxopiperidin-3-yl)isoindoline-1,3-dione]: less than 100 nM.

For the origin of these results see patent US11753397B2, “Cereblon binders for the degradation of ikaros” (C4 Therapeutics, Inc., priority 2018, dated 2023).
